BindingDB's records for doi:10.1016/j.ejmech.2021.113512 (Jagiellonian University Medical College, 2021)

Assay: Inhibition of mouse GAT3 expressed in human HEK293 cell line assessed as inhibition of [3H]GABA uptake measured after 40 mins […]
Compound CN(CCC=C(c1ccccc1)c1ccccc1)C(CCN)C(=O)NCc1ccccc1Cl (configuration not stated) has an IC50 of 10 µM.
Compound Cc1ccsc1C(=CCCN(C)[C@H]1CCCC[C@H]1C(=O)O)c1sccc1C has an IC50 of 933 µM.
Work on CN(CCC=C1c2ccccc2-c2ccccc21)C(CCO)C(=O)NCc1ccccc1 (configuration not stated) yielded an IC50 of 12.6 µM.
CN(CCC=C1c2ccccc2-c2ccccc21)C(CCO)C(=O)NCc1ccccc1Cl (configuration not stated) gave an IC50 of 16.2 µM.
CN(CCC=C1c2ccccc2-c2ccccc21)C(CCO)C(=O)NCc1ccc(Cl)cc1 (configuration not stated) showed an IC50 of 10.2 µM.
Work on CN(CCC=C1c2ccccc2-c2ccccc21)C(CCO)C(=O)NCc1ccc(F)cc1 (configuration not stated) yielded an IC50 of 13.5 µM.
Cc1ccc(CNC(=O)C(CCO)N(C)CCC=C2c3ccccc3-c3ccccc32)cc1 (configuration not stated) gave an IC50 of 20 µM.
Work on CN(CCC=C1c2ccccc2C=Cc2ccccc21)C(CCO)C(=O)NCc1ccccc1 (configuration not stated) yielded an IC50 of 13.5 µM.
CN(CCC=C1c2ccccc2C=Cc2ccccc21)C(CCO)C(=O)NCc1ccccc1Cl (configuration not stated) showed an IC50 of 8.91 µM.
Work on CN(CCC=C1c2ccccc2C=Cc2ccccc21)C(CCO)C(=O)NCc1ccc(Cl)cc1 (configuration not stated) yielded an IC50 of 13.5 µM.
In the case of CN(CCC=C1c2ccccc2C=Cc2ccccc21)C(CCO)C(=O)NCc1ccc(F)cc1 (configuration not stated), the IC50 is reported as 12.3 µM.
Cc1ccc(CNC(=O)C(CCO)N(C)CCC=C2c3ccccc3C=Cc3ccccc32)cc1 (configuration not stated) showed an IC50 of 17 µM.
For CN(CCC=C1c2ccccc2CCc2ccccc21)C(CCO)C(=O)NCc1ccccc1 (configuration not stated), the IC50 was 11.5 µM.
With CN(CCC=C1c2ccccc2CCc2ccccc21)C(CCO)C(=O)NCc1ccccc1Cl (configuration not stated) the IC50 was 12.6 µM.
CN(CCC=C1c2ccccc2CCc2ccccc21)C(CCO)C(=O)NCc1ccc(F)cc1 (configuration not stated) showed an IC50 of 16.6 µM.
With Cc1ccc(CNC(=O)C(CCO)N(C)CCC=C2c3ccccc3CCc3ccccc32)cc1 (configuration not stated) the IC50 was 12.6 µM.
For CN(CCC=C1c2ccccc2CCc2ccccc21)C(CCN)C(=O)NCc1ccccc1Cl (configuration not stated), the IC50 was 8.13 µM.
With CN(CCC=C1c2ccccc2CCc2ccccc21)C(CCN)C(=O)NCc1ccc(Cl)cc1 (configuration not stated) the IC50 was 5.13 µM.
In the case of CN(CCC=C1c2ccccc2CCc2ccccc21)C(CCN)C(=O)NCc1ccc(F)cc1 (configuration not stated), the IC50 is reported as 4.79 µM.
With Cc1ccc(CNC(=O)C(CCN)N(C)CCC=C2c3ccccc3CCc3ccccc32)cc1 (configuration not stated) the IC50 was 4.79 µM.
Work on CC(=O)NCCC(C(=O)NCc1ccc(Cl)cc1)N(C)CCC=C1c2ccccc2CCc2ccccc21 (configuration not stated) yielded an IC50 of 14.5 µM.
CC(=O)NCCC(C(=O)NCc1ccc(C)cc1)N(C)CCC=C1c2ccccc2CCc2ccccc21 (configuration not stated) showed an IC50 of 5.62 µM.
